{"source": "patent US5644059A", "about": "“1,4-dihydropyridine derivatives and methods of producing the same” (Fujirebio Inc., priority 1990, dated 1997)", "data": [{"tested_on": "platelet aggregation", "experiment": "Test for platelet aggregation-inhibiting activity of rabbit (PAF-induced aggregation in platelet rich plasma)", "format": "cell-based", "parameters": "dose or concentration left out as unconfirmed", "conditions": "rabbit PRP, 37°C, 10 minutes incubation, aggregation by PAF (10 μl); test compound concentration not given", "protocol": "2. Test for platelet aggregation-inhibiting activity of rabit\nA blood of a rabbit (Japanese white; male; 2.5-3.0 kg) was exsanguinated from a carotid of the rabbit, and nine parts of the blood were mixed with one part of a 3.8% aqueous solution of sodium citrate. The mixture was centrifuged at 1100 rpm at 20°C. for 15 minutes. The upper layer is a platelet rich plasma (PRP), and the lower layer was centrifuged at 2500 rpm at 20° C. for 10 minutes, so that a platelet poor plasma (PPP) was obtained.\n10 μl of a solution of the compound to be tested was added to 200 μl of PRP, and the mixture was subjected to incubation at 37°C. for 10 minutes. To the mixture was added 10 μl of a platelet activating factor (PAF)(10 mg/ml). The agglutination was measured by Agricometer (NKK, PAT-4A).", "units": {"Platelet Aggregation-Inhibiting Activity": "%"}, "values": [{"smiles": "COC(=O)C1=C(C)NC(C)=C(C(=O)N[C@@H](C(=O)OC(C)(C)C)C(C)C)C1c1cccc([N+](=O)[O-])c1", "note": "(some centres unmarked) [2 (Compound b)]", "Platelet Aggregation-Inhibiting Activity": 98.2}, {"smiles": "COC(=O)C1=C(C)NC(C)=C(C(=O)NCC(=O)OC(C)(C)C)C1c1cccc(Cl)c1", "note": "(centres unmarked) [Example 32, t-butyl 2-[N-[1,4-dihydro-2,6-dimethyl-5-methoxycarbonyl-4-(3-chlorophenyl)pyridine-3-carbonyl]-amino]acetate]", "Platelet Aggregation-Inhibiting Activity": 100}, {"smiles": "COCCOC(=O)CNC(=O)C1=C(C)NC(C)=C(C(=O)OC)C1c1cccc([N+](=O)[O-])c1", "note": "(centres unmarked) [Example 60]", "Platelet Aggregation-Inhibiting Activity": 47.2}, {"smiles": "COCCOC(=O)C1=C(C)NC(C)=C(C(=O)N[C@H](C(=O)OC(C)(C)C)C(C)C)C1c1cccc([N+](=O)[O-])c1", "note": "(single isomer, unassigned) [50 (Compound a)]", "Platelet Aggregation-Inhibiting Activity": 23.5}, {"smiles": "CCOC(=O)C(C)(C)NC(=O)C1=C(C)NC(C)=C(C(=O)OC)C1c1cccc([N+](=O)[O-])c1", "note": "(centres unmarked) [Example 68, ethyl 2-[N-[1,4-dihydro-2,6-dimethyl-5-methoxycarbonyl-4-(3-nitrophenyl)pyridine-3-carbonyl]amino]isobutyrate]", "Platelet Aggregation-Inhibiting Activity": 34.1}, {"smiles": "COC(=O)C1=C(C)NC(C)=C(C(=O)N[C@H](C(=O)OC(C)(C)C)C(C)C)C1c1ccccc1Cl", "note": "(single isomer, unassigned) [7 (Compound a)]", "Platelet Aggregation-Inhibiting Activity": 54.1}, {"smiles": "COC(=O)C1=C(C)NC(C)=C(C(=O)N[C@H](C(=O)OC(C)(C)C)C(C)C)C1c1ccccc1F", "note": "(single isomer, unassigned) [13 (Compound a)]", "Platelet Aggregation-Inhibiting Activity": 37.7}, {"smiles": "COC(=O)C1=C(C)NC(C)=C(C(=O)NCC(=O)N2CCCC2)C1c1cccc([N+](=O)[O-])c1", "note": "(centres unmarked) [Example 57, methyl 1,4-dihydro-2,6-dimethyl-4-(3-nitrophenyl)-5-[N-[(pyrrolidin-1-yl)carbonylmethyl]carbamoyl]pyridine-3-carboxylate]", "Platelet Aggregation-Inhibiting Activity": 64.5}, {"smiles": "COC(=O)C1=C(C)NC(C)=C(C(=O)NCC(=O)OC(C)(C)C)C1c1cccc(C)c1", "note": "(centres unmarked) [Example 35, t-butyl 2-[N-[1,4-dihydro-2,6-dimethyl-5-methoxycarbonyl-4-(3-methylphenyl)pyridine-3-carbonyl]-amino]acetate]", "Platelet Aggregation-Inhibiting Activity": 32.3}, {"smiles": "CCOC(=O)C1(NC(=O)C2=C(C)NC(C)=C(C(=O)OC)C2c2cccc([N+](=O)[O-])c2)CCCCC1", "note": "(centres unmarked) [Example 67, ethyl 1-[N-[1,4-dihydro-2,6-dimethyl-5-methoxycarbonyl-4-(3-nitrophenyl)pyridine-3-carbonyl]amino]cyclohexanecarboxylate]", "Platelet Aggregation-Inhibiting Activity": 33.8}, {"smiles": "CCOC(=O)CCNC(=O)C1=C(C)NC(C)=C(C(=O)OC)C1c1cccc([N+](=O)[O-])c1", "note": "(centres unmarked) [Example 64, ethyl 3-[N-[1,4-dihydro-2,6-dimethyl-5-methoxycarbonyl-4-(3-nitrophenyl)pyridine-3-carbonyl]amino]-propionate]", "Platelet Aggregation-Inhibiting Activity": 52.6}, {"smiles": "COC(=O)C1=C(C)NC(C)=C(C(=O)N[C@H](C(=O)OC(C)(C)C)C(C)C)C1c1ccccc1[N+](=O)[O-]", "note": "(single isomer, unassigned) [27 (Compound a)]", "Platelet Aggregation-Inhibiting Activity": 33.3}, {"smiles": "CCOC(=O)C1=C(C)NC(C)=C(C(=O)NCC(=O)OC(C)(C)C)C1c1cccc([N+](=O)[O-])c1", "note": "(centres unmarked) [Example 36, t-butyl 2-[N-[1,4-dihydro-2,6-dimethyl-5-ethoxycarbonyl-4-(3-nitrophenyl)pyridine-3-carbonyl]-amino]acetate]", "Platelet Aggregation-Inhibiting Activity": 100}, {"smiles": "COC(=O)C1=C(C)NC(C)=C(C(=O)NCC(=O)OC(C)(C)C)[C@@H]1c1cccc([N+](=O)[O-])c1", "note": "[Example 79, (+)-t-butyl (S)-[2-[N-[1,4-dihydro-2,6-dimethyl-5-methoxycarbonyl-4-(3-nitrophenyl)pyridin-3-yl]-carbonyl]amino]acetate]", "Platelet Aggregation-Inhibiting Activity": 100}, {"smiles": "CC1=C(C(=O)NCC(=O)OC(C)(C)C)C(c2cccc([N+](=O)[O-])c2)C(C(=O)OC(C)C)=C(C)N1", "note": "(centres unmarked) [Example 37, t-butyl 2-[N-[1,4-dihydro-2,6-dimethyl-5-isopropyloxycarbonyl-4-(3-nitrophenyl)pyridine-3-carbonyl]amino]acetate]", "Platelet Aggregation-Inhibiting Activity": 100}, {"smiles": "COC(=O)C1=C(C)NC(c2ccccc2)=C(C(=O)N[C@H](C(=O)OC(C)(C)C)C(C)C)C1c1cccc([N+](=O)[O-])c1", "note": "(some centres unmarked) [Example 71, t-butyl 2-[N-[1,4-dihydro-6-methyl-5-methoxycarbonyl-4-(3-nitrophenyl)-2-phenylpyridine-3-carbonyl]amino]-3-methylbutylate]", "Platelet Aggregation-Inhibiting Activity": 100}, {"smiles": "CCOC(=O)CN(C)C(=O)C1=C(C)NC(C)=C(C(=O)OC)C1c1cccc([N+](=O)[O-])c1", "note": "(centres unmarked) [Example 65]", "Platelet Aggregation-Inhibiting Activity": 42.7}, {"smiles": "COC(=O)C1=C(C)NC(C)=C(C(=O)NCC(=O)N[C@H](C(=O)OC(C)(C)C)C(C)C)C1c1cccc([N+](=O)[O-])c1", "note": "(stereo partly drawn) [Example 66, t-butyl 2-(S)-[N-[[N-[1,4-dihydro-2,6-dimethyl-5-methoxycarbonyl-4-(3-nitrophenyl)pyridine-3-carbonyl]amino]acetyl]amino]-3-methylbutylate]", "Platelet Aggregation-Inhibiting Activity": 100}, {"smiles": "COC(=O)C1=C(C)NC(C)=C(C(=O)NCC(=O)N2CCN(c3ccccc3)CC2)C1c1cccc([N+](=O)[O-])c1", "note": "(centres unmarked) [Example 58, methyl 1,4-dihydro-2,6-dimethyl-4-(3-nitrophenyl)-5-[N-[(4-phenylpiperazinyl)carbonylmethyl]-carbamoyl]pyridine-3-carboxylate]", "Platelet Aggregation-Inhibiting Activity": 22.1}, {"smiles": "COC(=O)C1=C(C)NC(C)=C(C(=O)NCC(=O)OC(C)(C)C)C1c1ccccc1Cl", "note": "(centres unmarked) [Example 8, t-butyl 2-[N-[1,4-dihydro-2,6-dimethyl-5-methoxycarbonyl-4-(2-chlorophenyl)pyridine-3-carbonyl]-amino]acetate]", "Platelet Aggregation-Inhibiting Activity": 39.1}, {"smiles": "CC1=C(C(=O)N[C@H](C(=O)OC(C)(C)C)C(C)C)C(c2cccc([N+](=O)[O-])c2)C(C(=O)OC(C)C)=C(C)N1", "note": "(some centres unmarked) [Example 49]", "Platelet Aggregation-Inhibiting Activity": 38.9}, {"smiles": "COC(=O)C1=C(C)NC(C)=C(C(=O)N[C@@H](C)C(=O)OC(C)(C)C)C1c1ccccc1Cl", "note": "(stereo partly drawn) [Example 9, t-butyl 2-(S)-[N-[1,4-dihydro-2,6-dimethyl-5-methoxycarbonyl-4-(2-chlorophenyl)pyridine-3-carbonyl]amino]propionate]", "Platelet Aggregation-Inhibiting Activity": 29.8}, {"smiles": "COC(=O)C1=C(C)NC(C)=C(C(=O)NCC(=O)OC(C)(C)C)C1c1cccc([N+](=O)[O-])c1", "note": "(centres unmarked) [Example 3, t-butyl 2-[N-[1,4-dihydro-2,6-dimethyl-5-methoxycarbonyl-4-(3-nitrophenyl)pyridine-3-carbonyl]amino]acetate]", "Platelet Aggregation-Inhibiting Activity": 100}, {"smiles": "COC(=O)C1=C(C)NC(C)=C(C(=O)N[C@H](C(=O)OC(C)(C)C)C(C)C)C1c1cccc(F)c1", "note": "(single isomer, unassigned) [19 (Compound a)]", "Platelet Aggregation-Inhibiting Activity": 35.4}, {"smiles": "COC(=O)C1=C(C)NC(C)=C(C(=O)NCC(=O)OC(C)C)C1c1cccc([N+](=O)[O-])c1", "note": "(centres unmarked) [Example 63, isopropyl 2-[N-[1,4-dihydro-2,6-dimethyl-5-methoxycarbonyl-4-(3-nitrophenyl)pyridine-3-carbonyl]-amino]acetate]", "Platelet Aggregation-Inhibiting Activity": 100}, {"smiles": "CCOC(=O)c1ccccc1NC(=O)C1=C(C)NC(C)=C(C(=O)OC)C1c1cccc([N+](=O)[O-])c1", "note": "(centres unmarked) [Example 69, ethyl 2-[N-[1,4-dihydro-2,6-dimethy1-5-methoxycarbonyl-4-(3-nitrophenyl)pyridine-3-carbonyl]amino]-benzoate]", "Platelet Aggregation-Inhibiting Activity": 23.3}, {"smiles": "COC(=O)C1=C(C)NC(C)=C(C(=O)N[C@H](C(=O)OC(C)(C)C)C(C)C)C1c1cccc(Cl)c1", "note": "(single isomer, unassigned) [18 (Compound a)]", "Platelet Aggregation-Inhibiting Activity": 33.8}, {"smiles": "CCOC(=O)C1=C(c2ccccc2)NC(C)=C(C(=O)NCC(=O)OC(C)(C)C)C1c1cccc([N+](=O)[O-])c1", "note": "(centres unmarked) [Example 76]", "Platelet Aggregation-Inhibiting Activity": 46.3}, {"smiles": "COC(=O)C1=C(C)NC(C)=C(C(=O)N[C@H](C(=O)OC(C)(C)C)C(C)C)C1c1cccc([N+](=O)[O-])c1", "note": "(single isomer, unassigned) [1 (Compound a)]", "Platelet Aggregation-Inhibiting Activity": 42.8}, {"smiles": "COC(=O)C1=C(C)NC(C)=C(C(=O)N[C@H](C(=O)OC(C)(C)C)C(C)C)C1c1cccc(C#N)c1", "note": "(single isomer, unassigned) [22 (Compound a)]", "Platelet Aggregation-Inhibiting Activity": 20.2}, {"smiles": "CCOC(=O)C1=C(C)NC(C)=C(C(=O)N[C@H](C(=O)OC(C)(C)C)C(C)C)C1c1cccc([N+](=O)[O-])c1", "note": "(stereo partly drawn) [Example 48, t-butyl 2-(S)-[N-[1,4-dihydro-2,6-dimethyl-5-ethoxycarbonyl-4-(3-nitrophenyl)pyridine-3-carbonyl]amino]-3-methylbutylate]", "Platelet Aggregation-Inhibiting Activity": 41.5}, {"smiles": "COCCOC(=O)C1=C(C)NC(C)=C(C(=O)NCC(=O)OC(C)(C)C)C1c1cccc([N+](=O)[O-])c1", "note": "(centres unmarked) [Example 38, t-butyl 2-[N-[1,4-dihydro-2,6-dimethyl-5-(2-methoxyethyloxycarbonyl)-4-(3-nitrophenyl)pyridine-3-carbonyl]amino]acetate]", "Platelet Aggregation-Inhibiting Activity": 100}]}]}
